Where two headings read alike, the source gives them in different places.
Legend:
Kuramochi cells = test: IncuCyte Kuramochi Assay (cell proliferation); format: cell-based; conditions: Kuramochi cells labeled with mApple-H2B, cell count, read-out: IncuCyte - Kuramochi RB-WT: IC50
Protocol: IncuCyte® assay was used to measure the effect of disclosed compounds on cell proliferation. Fluorescent microscopy images of cells were taken immediately after compound treatment and 72 hours later. Image analysis software was used to obtain cell counts as a function of compound concentration. Kuramochi cells labeled with mApple-H2B were seeded on 384-well assay-ready plates. Plates were placed in an IncuCyte® (Sartorius) and scanned at 0 and 72 hours. IncuCyte® software was used to count the number of fluorescent nuclei in each well. The fold change in cell count from 0 to 72 hours in wells treated with increasing compounds concentrations (10 pts, ½ log dilution, 20 μM top concentration) was normalized to DMSO control wells. The normalized cell counts were fit with dose response curves and a […] was calculated.

CDK2/Cyclin E1 = target: T1, CDK2/Cyclin E1 (Homo sapiens, UniProt P24941); test: Caliper Assay (LabChip EZ Reader mobility shift assay), inhibition of CDK2/Cyclin E1 activity; format: biochemical; conditions: 2.5 nM CDK2/Cyclin E1(14-475), 100 μM ATP, 30 min preincubation; read-out: Caliper Assay (CDK2/CCNE1): IC50
T1 construct: purchased 14-475
Protocol: Inhibition of CDK2/Cyclin E1 activity in the presence of compounds of the present disclosure was evaluated using a Caliper LabChip® EZ Reader mobility shift assay. In the assay, activated CDK2/Cyclin E1 catalyzes the phosphorylation of a fluorescently tagged peptide 5-FAM-QSPKKG-CONH2 (PerkinElmer, FL Peptide 18) which induces a difference in capillary electrophoresis mobility. The peptide substrate and product were measured, and the conversion ratio was used to determine the inhibition (as % activity and IC50 values) of CDK2/Cyclin E1. Reactions contained 50 mM HEPES pH 7.5, 10 mM MgCl2, 1 mM EDTA, 2 mM DTT, 0.01% Brij35, 0.5 mg/mL BSA, 0.1% DMSO, 2.5 nM CDK2/Cyclin E1(14-475), 100 μM ATP, and 1.5 μM fluorescent peptide substrate.
Dose titrations of inhibitors in 100% DMSO were combined with 3.25 nM CDK2/Cyclin E1(14-475) and 130 μM of ATP in reaction buffer. The mixtures were incubated for 30 minutes before the addition of fluorescent peptide substrate to initiate the kinase reaction. The final conditions were 2.5 nM CDK2/Cyclin E1(14-475), 100 μM ATP, and 1.5 μM fluorescent peptide. The reactions were stopped after 100 minutes with the addition of EDTA (6 mM final EDTA concentration). The stopped reactions were analyzed on a Caliper LabChip© EZ Reader II. The conversion ratios were normalized to yield % activity, plotted against compound concentration, and fit to a four-parameter equation to determine the IC50 for each compound.

Structure (SMILES)	IC50 (Kuramochi cells; 72 h) [µM]	IC50 (CDK2/Cyclin E1) [µM]	IC50 (Kuramochi cells; 72 hours) [µM]
O=C(c1cncs1)N1CC(c2nc3cc(Oc4ccccc4)ccc3o2)C2(C1)CN(C(=O)[C@H]1CC1(F)F)C2 (stereo partly drawn) [I-145, (2-((R)-2,2-difluorocyclopropane-1-carbonyl)-8-(5-phenoxybenzo[d]oxazol-2-yl)-2,6-diazaspiro[3.4]octan-6-yl)(thiazol-5-yl)methanone]	> 10	> 10	–
CC1(C)C[C@@H]1C(=O)N1CC2(CN(C(=O)c3cnn(Cc4ccccc4)c3)CC2c2nnc(CCC3CCC(F)(F)CC3)o2)C1 (stereo partly shown) [I-17]	> 10	0.1 to 1	–
O=C(c1cn[nH]c1C(F)(F)F)N1CC(c2nnc(C(F)(F)c3ccc(Cl)c(Cl)c3)o2)C2(C1)CN(C(=O)[C@H]1CC1(F)F)C2 (stereo partly drawn) [I-167, (8-(5-((3,4-dichlorophenyl)difluoromethyl)-1,3,4-oxadiazol-2-yl)-2-((R)-2,2-difluorocyclopropane-1-carbonyl)-2,6-diazaspiro[3.4]octan-6-yl)(5-(trifluoromethyl)-1H-pyrazol-4-yl)methanone]	> 10	> 10	–
Cc1nc(C)c(C(=O)N2CC(c3nnc(C(C)c4cccc(C5(C(F)(F)F)CC5)n4)o3)C3(C2)CN(C(=O)[C@H]2CC2(C)C)C3)s1 (stereo partly shown) [I-104]	> 10	0.1 to 1	–
O=C(c1cncs1)N1CC(c2nnc(C(F)(F)c3ccc(Cl)c(Cl)c3)o2)C2(C1)CN(C(=O)[C@@H]1CCCN1)C2 (stereo partly shown) [I-169 2nd]	> 10	> 10	–
CC(C)(c1cccc(C2CCOCC2)n1)c1nnc(C2CN(C(=O)c3cncs3)CC23CN(C(=O)[C@H]2CC2(C)C)C3)o1 (stereo partly shown) [I-102]	> 10	0.01 to 0.1	–
C[C@H](NC(=O)c1coc(C2CN(C(=O)c3cnn(Cc4ccccc4)c3)CC23CN(C(=O)[C@H]2CC2(C)C)C3)n1)c1ccccc1 (stereo partly shown) [I-88]	> 10	0.1 to 1	–
CC1(C)C[C@@H]1C(=O)N1CC2(CN(C(=O)c3cncs3)CC2c2nnc(C(F)(F)c3ccc(C4CC4)cc3)o2)C1 (stereo partly shown) [I-40]	> 10	0.1 to 1	–
Cc1ccc(Cc2nnc(C3CN(C(=O)c4cnn(Cc5ccccc5)c4)CC34CN(C(=O)[C@H]3CC3(C)C)C4)o2)nn1 (stereo partly shown) [I-22]	> 10	1 to 10	–
CC(c1nc(C2CN(C(=O)c3cncs3)CC23CN(C(=O)[C@H]2CC2(C)C)C3)no1)n1ccc(C2CCOCC2)n1 (stereo partly shown) [I-82]	> 10	0.1 to 1	–
CC(C)(c1cc[nH]n1)c1nc(C2CN(C(=O)c3cncs3)CC23CN(C(=O)[C@H]2CC2(C)C)C3)no1 (stereo partly shown) [I-79]	> 10	1 to 10	–
O=C(c1cn[nH]c1)N1CC(c2nnc(C(F)(F)c3ccc(Cl)c(Cl)c3)o2)C2(C1)CN(C(=O)[C@H]1CC1(F)F)C2 (stereo partly drawn) [I-191, (8-(5-((3,4-dichlorophenyl)difluoromethyl)-1,3,4-oxadiazol-2-yl)-2-((R)-2,2-difluorocyclopropane-1-carbonyl)-2,6-diazaspiro[3.4]octan-6-yl)(1H-pyrazol-4-yl)methanone]	> 10	1 to 10	–
O=C(c1cncs1)N1CC(c2nnc(Cc3ccc(Cl)c(Cl)c3)o2)C2(C1)CN(c1ncccn1)C2 (stereo not shown) [I-49]	> 10	> 10	–
CC(C)(C(=O)N1CC2(CN(C(=O)c3cncs3)CC2c2nnc(C(F)(F)c3ccc(Cl)c(Cl)c3)o2)C1)C(F)(F)F (stereo not shown) [I-57]	> 10	0.1 to 1	–
O=C([C@H]1CC1(F)F)N1CC2(C1)CN(C(=O)N1CCOCC1)CC2c1nnc(C(F)(F)c2ccc(Cl)c(Cl)c2)o1 (stereo partly drawn) [I-148, (8-(5-((3,4-dichlorophenyl)difluoromethyl)-1,3,4-oxadiazol-2-yl)-2-((R)-2,2-difluorocyclopropane-1-carbonyl)-2,6-diazaspiro[3.4]octan-6-yl)(morpholino)methanone]	> 10	> 10	–
CC1(C)C[C@@H]1C(=O)N1CC2(CN(C(=O)c3cncs3)CC2c2nnc(Cc3ccc(Cl)cc3)o2)C1 (stereo partly shown) [I-30]	> 10	1 to 10	–
O=C(c1cncs1)N1CC(c2nnc(C(F)(F)c3ccc(Cl)c(Cl)c3)o2)C2(C1)CN(c1ncccn1)C2 (stereo not shown) [I-59, (8-(5-((3,4-dichlorophenyl)difluoromethyl)-1,3,4-oxadiazol-2-yl)-2-(pyrimidin-2-yl)-2,6-diazaspiro[3.4]octan-6-yl)(thiazol-5-yl)methanone]	> 10	> 10	–
O=C(c1onc2ccccc12)N1CC(c2nnc(C(F)(F)c3ccc(Cl)c(Cl)c3)o2)C2(C1)CN(C(=O)[C@H]1CC1(F)F)C2 (single isomer, unassigned) [I-151 2nd]	–	1 to 10	> 10

Structure (SMILES)	IC50 (Kuramochi cells; 72 h) [µM]	IC50 (CDK2/Cyclin E1) [µM]	IC50 (Kuramochi cells; 72 hours) [µM]
CC1(C)C[C@@H]1C(=O)N1CC2(CN(C(=O)c3cncs3)CC2c2nnc(C(F)(F)c3ccccc3)o2)C1 (stereo partly shown) [I-70]	> 10	1 to 10	–
O=C(c1cncs1)N1CC(c2nnc(C(F)(F)c3ccc(Cl)c(Cl)c3)o2)C2(C1)CN(C(=O)C1CNC1)C2 (stereo not shown) [I-173]	> 10	> 10	–
CC1(C)C[C@@H]1C(=O)N1CC2(CN(C(=O)c3cnn(Cc4ccccc4)c3)CC2c2nnc(Cc3ccncc3)o2)C1 (stereo partly shown) [I-23]	> 10	0.1 to 1	–
CC(=O)N1CC(c2nnc(C(F)(F)c3ccc(Cl)c(Cl)c3)o2)C2(C1)CN(C(=O)[C@H]1CC1(C)C)C2 (stereo partly shown) [I-200]	> 10	> 10	–
CC1(C)C[C@@H]1C(=O)N1CC2(CN(C(=O)c3cnn(Cc4ccccc4)c3)CC2c2ccc(NC(=O)C3CCCCC3)cc2)C1 (stereo partly drawn) [I-87, N-(4-(6-(1-benzyl-1H-pyrazole-4-carbonyl)-2-((S)-2,2-dimethylcyclopropane-1-carbonyl)-2,6-diazaspiro[3.4]octan-8-yl)phenyl)cyclohexanecarboxamide]	5 to 10	1 to 10	–
CC1(C)C[C@@H]1C(=O)N1CC2(CN(C(=O)c3cnn(Cc4ccccc4)c3)CC2c2ncc(Cc3ccc(Cl)cc3)o2)C1 (stereo partly drawn) [I-8, (1-benzyl-1H-pyrazol-4-yl)(8-(5-(4-chlorobenzyl)oxazol-2-yl)-2-((S)-2,2-dimethylcyclopropane-1-carbonyl)-2,6-diazaspiro[3.4]octan-6-yl)methanone]	5 to 10	0.1 to 1	–
CC1(C)C[C@@H]1C(=O)N1CC2(CN(C(=O)c3cncs3)CC2c2nnc(Cc3cc[nH]n3)o2)C1 (stereo partly drawn) [I-29, (8-(5-((1H-pyrazol-3-yl)methyl)-1,3,4-oxadiazol-2-yl)-2-((S)-2,2-dimethylcyclopropane-1-carbonyl)-2,6-diazaspiro[3.4]octan-6-yl)(thiazol-5-yl)methanone]	> 10	> 10	–
CC(c1nc(C2CN(C(=O)c3cncs3)CC23CN(C(=O)[C@H]2CC2(C)C)C3)no1)n1ccc(C2CCCC2)n1 (single isomer, unassigned) [I-36 5th]	–	≤ 0.01	> 10
O=C(c1cncs1)N1CC(c2nnc(C(F)(F)c3ccc(Cl)c(Cl)c3)o2)C2(C1)CN(C(=O)[C@@H]1CCCO1)C2 (stereo partly shown) [I-164]	> 10	> 10	–
CC(=O)N1CC2(C1)CN(C(=O)c1cncs1)CC2c1nnc(C(F)(F)c2ccc(Cl)c(Cl)c2)o1 (stereo not shown) [I-196]	> 10	> 10	–
COc1ccc(C2CCOCC2)nc1Cc1nnc(C2CN(C(=O)c3cncs3)CC23CN(C(=O)[C@H]2CC2(C)C)C3)o1 (stereo partly shown) [I-55]	> 10	0.1 to 1	–
CC1(C)C[C@@H]1C(=O)N1CC2(CN(C(=O)c3cnn(Cc4ccccc4)c3)CC2c2nnc(CC3CCOCC3)o2)C1 (stereo partly shown) [I-12]	> 10	1 to 10	–
O=C(c1cncs1)N1CC(c2nnc(C(F)(F)c3ccc(Cl)c(Cl)c3)o2)C2(CC(C(=O)N3CCC3)C2)C1 (stereo not shown) [I-180]	> 10	> 10	–
O=C(c1cncs1)N1CC(c2nnc(C(F)(F)c3ccc(Cl)c(Cl)c3)o2)C2(C1)CN(c1cccnn1)C2 (stereo not shown) [I-187, (8-(5-((3,4-dichlorophenyl)difluoromethyl)-1,3,4-oxadiazol-2-yl)-2-(pyridazin-3-yl)-2,6-diazaspiro[3.4]octan-6-yl)(thiazol-5-yl)methanone]	> 10	> 10	–
CCO[C@H]1C[C@@H](c2nc(C3CN(C(=O)c4cnn(Cc5ccccc5)c4)CC34CN(C(=O)[C@H]3CC3(C)C)C4)no2)C1 (stereo partly shown) [I-3]	> 10	1 to 10	–
CC1(C)C[C@@H]1C(=O)N1CC2(CN(C(=O)c3cncs3)CC2c2nnc(Cc3cccc(C4CCOCC4)n3)o2)C1 (stereo partly shown) [I-25]	> 10	0.1 to 1	–
C[C@@H](NC(=O)c1coc(C2CN(C(=O)c3cnn(Cc4ccccc4)c3)CC23CN(C(=O)[C@H]2CC2(C)C)C3)n1)c1ccccc1 (stereo partly shown) [I-11]	≤ 0.5	1 to 10	–
